Experimental data taken from patent US9000027B2, “Chk1 suppresses a caspase-2 apoptotic response to DNA damage that bypasses p53, bcl-2 and caspase-3” (Dana-Farber Cancer Institute, Inc., priority 2008, dated 2015).

Assays:
[1] = test system: p53^e7/e7;chk1^MO embryos; assay: Epistasis analyses in irradiated p53^e7/e7;chk1^MO embryos (live AO assay); assay type: in vivo; details: 12.5 Gy
Experimental: To identify such molecules, we performed in vivo epistasis analyses in zebrafish by knocking down or forcing the expression of candidate pathway contributors in p53^e7/e7;chk1^MO embryos.
Morpholino oligonucleotides (MOs) synthesized by Gene Tools™ LLC, were resuspended in sterile water at a concentration of 1 mM and delivered into zebrafish embryos at the one-cell stage by microinjection. The injection apparatus consisted of a heat-pulled, filamentous RNAse free capillary tube positioned by a micromanipulator (Narishige™ M-125), through which the MO was pressure-injected using a nitrogen air supply controlled by a microinjector (Harvard Apparatus™ PLI-100). MOs were delivered into the yolk of embryos at the one cell stage, just below the cytoplasm. For each previously unpublished MO, the working concentration was determined as the highest dose compatible with normal zebrafish development in the p53^e7/e7 background (maximal subtoxic concentration). […] 100 ng of bcl-xl mRNA in vitro transcribed from full-length zebrafish bcl-xl cDNA cloned into pCS2 were injected as described above. All embryos were grown at 28.5° C. in egg water (5 mM NaCl, 0.17 mM KCl, 0.4 mM CaCl2 and 0.16 mM MgSO4). Knockdown efficiencies for the chk1, chk2, atm, atr, p63, casp8 and casp9 MOs at their maximal subtoxic concentrations are shown in FIG. 10. The sequences of the PCR primers used for RT-PCR-based monitoring of MO efficiencies are available upon request.
Live zebrafish embryos were dechorionated in pronase (2.0 mg/mL in egg water) for 3 to 5 min and rinsed five times in egg water at 18 hpf. […] At 24 hpf, embryos were incubated in […] Acridine Orange (AO; Sigma A-6014) in egg water for 30 min at 28.5° C., followed by 3 quick rinses and three 10-min washes in egg water. 5-10 AO-treated embryos were anesthetized in Tricaine ([…]; 3-amino benzoic acid ethylester from Sigma, A-5040) and mounted laterally on a glass slide in warm 0.5% agarose in egg water by streaking a thin layer of the warm agarose across the surface of the slide, and gently pulling the embryos across the agar with a transfer pipette. Lateral images of each zebrafish were acquired on a Zeiss Axioplan2 fluorescence microscope (5× lens), using OpenLab software and a Hammamatsu C4742-95 digital camera. All images were then converted to 8-bit grayscale in NIH ImageJ using the Image>Type>8-bit command. Next, we cropped the images using the Polyonal Selection tool and the Image>Crop functions to include only the trunk of the animal from the head until the beginning of the yolk tube (MO screen; FIG. 1B) or along the entire spinal cord (epistasis analyses; FIGS. 6A & 6D). The area outside of the selected region of interest was cleared using the Edit>Clear Outside command to create a distinct boundary around the area of interest (this is important as it allows the area of interest to be precisely selected after applying the threshold). Next, we split the acquired images into features of interest and background using the Image>Adjust>Threshold function in NIH ImageJ. We then set the maximum threshold of each image to 255 (the lower slide bar in the Threshold window), and adjusted the minimum threshold to the optimized threshold (see below). The threshold was applied using the Black & White display option, with the following Lut options applied; Thresholded pixels to foreground color; Remaining pixels to background color and Black foreground, white background. […] Next, we re-selected the region of interest on the thresholded image, following the bounded image carefully, and analyzed the pixels of the image using the Analyze>Analyze Particles function. The Minimum Size was set to 1px, the Maximum Size was set to the maximum value of 999999 and the Masks option was selected under the Show pull-down menu. The following extended options were also selected: Display Results; Clear Results; Summarize, Size Distribution and Record Starts. […]

casp9 = assay: MO knockdown efficiency: RT-PCR of casp9 transcripts; assay type: in vivo, zebrafish; details: maximal subtoxic MO concentration
Excerpt: (§1) (A) Western blot of 25.5 hpf zebrafish protein lysates from non-injected and atr MO-injected embryos using an anti-human ATR antibody recognizing an internal peptide that is highly conserved in zebrafish Atr. Detection of a high molecular weight zebrafish band showing the same migration pattern as human ATR (lane 1) strongly supports crossreactivity of the antibody with zebrafish ATR (the predicted molecular weight of zebrafish ATR, 300 kDa, matches that of human ATR). […] The MO concentration used in the MO screen (FIG. 1) and epistasis analyses (FIG. 5), 0.25 mM, leads to a >50% reduction in ATR levels compared to control (compare lanes 5 with 2 and 3). (B-E) Gel migration profiles of RT-PCR products from non-injected and MO-injected embryos using primers in exons flanking the targeted exon (Table 1). All bands were excised and sequenced. […] All RT-PCRs are semi-quantitative with β-actin amplicon serving as loading control. […] Either aberrant splice product results in the occurrence of an inappropriate early stop codon (as a result of in-frame reading of the intron or of a frameshift caused by exon skipping), which is predicted to result in an early truncation of the ATM protein before the PIKK kinase domain. […] As exemplified in lane 4, this same MO concentration could lead to stronger knockdowns, but in this case the embryos could not be scored in the assay. […]

zebrafish ATR = assay: MO knockdown efficiency: western blot of ATR levels; assay type: in vivo; details: atr MO 0.25 mM, 25.5 hpf lysates
Excerpt: as §1

Row | Substance | effect on IR-induced cell death (AO labeling) of p53^e7/e7;chk1^MO embryos [1] | casp9 knockdown (casp9) | reduction of the mean p53^e7/e7;chk1^MO AO response [1] | reduction in ATR levels compared to control (zebrafish ATR)
1 | casp9 MO: morpholino against zebrafish casp9 splice donor site (SEQ ID NO: 26) (GATGGAAAAACACACTTACGGACTG; antisense; all phosphorodiamidate morpholino (PMO)) | complete absence of effects | ~50% |  | 
2 | atr MO: morpholino against zebrafish atr atg/5'UTR (SEQ ID NO: 15) (TGACATTTCTAGTCCTTGCTCCATC; antisense; all phosphorodiamidate morpholino (PMO)) |  |  | ~90% | > 50%
